Assay results: article PMC11066976 (Cell reports, 2023)
Like-named read-outs stand apart in the source and are kept apart here. Values belong to the molecule of their own block, whether it stands above or below them.

What was measured:
Experiment in all cases: compensated interferometric reader
[1] = biological target: T1, transcobalamin 2 (TCN2) (Homo sapiens, UniProt P20062); type: binding
T1 sequence (P20062 19-427): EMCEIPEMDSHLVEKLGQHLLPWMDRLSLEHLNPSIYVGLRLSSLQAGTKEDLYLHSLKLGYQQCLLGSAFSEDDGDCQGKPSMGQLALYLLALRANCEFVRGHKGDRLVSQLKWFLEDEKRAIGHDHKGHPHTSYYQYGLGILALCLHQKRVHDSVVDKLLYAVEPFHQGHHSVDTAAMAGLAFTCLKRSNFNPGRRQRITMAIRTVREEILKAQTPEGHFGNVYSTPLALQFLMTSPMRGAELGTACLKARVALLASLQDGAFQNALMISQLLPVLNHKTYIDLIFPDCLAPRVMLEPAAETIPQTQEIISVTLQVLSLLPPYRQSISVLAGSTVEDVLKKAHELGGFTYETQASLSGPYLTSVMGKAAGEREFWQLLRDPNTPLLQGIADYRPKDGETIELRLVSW

[2] = biological target: T2, CD320 (Homo sapiens, UniProt Q9NPF0); type: binding
T2 sequence (Q9NPF0 36-229 limits assumed): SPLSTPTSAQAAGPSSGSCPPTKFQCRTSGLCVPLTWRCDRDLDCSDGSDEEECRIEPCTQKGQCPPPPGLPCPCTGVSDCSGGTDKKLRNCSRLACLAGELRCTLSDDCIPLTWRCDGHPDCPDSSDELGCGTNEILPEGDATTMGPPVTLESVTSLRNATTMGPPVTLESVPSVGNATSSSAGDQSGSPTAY

[3] = biological target: T1, transcobalamin 2 (TCN2); type: binding; remark: listed apart in the source
[4] = biological target: T3, Recombinant human TCN2 (human, UniProt P20062 19-427)
T3 sequence (looked up): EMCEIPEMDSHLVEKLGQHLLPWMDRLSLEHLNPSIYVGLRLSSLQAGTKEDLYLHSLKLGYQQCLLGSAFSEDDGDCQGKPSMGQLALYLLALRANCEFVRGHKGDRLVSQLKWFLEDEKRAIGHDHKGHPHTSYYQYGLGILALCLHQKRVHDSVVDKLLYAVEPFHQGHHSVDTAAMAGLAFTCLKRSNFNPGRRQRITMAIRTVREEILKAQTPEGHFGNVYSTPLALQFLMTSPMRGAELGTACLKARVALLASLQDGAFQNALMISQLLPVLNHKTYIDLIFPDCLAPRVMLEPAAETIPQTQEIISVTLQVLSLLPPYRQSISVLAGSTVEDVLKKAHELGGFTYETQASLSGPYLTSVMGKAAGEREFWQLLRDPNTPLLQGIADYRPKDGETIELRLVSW

Molecule: CCCCCCCCc1ccc(CCC(N)(CO)CO)cc1 [FTY720]
Kd [1]: 0.24 nM

Molecule: CCCCCCCCCCCCC/C=C/[C@@H](O)[C@@H](N)COP(=O)(O)O [S1P]
Kd [2]: 11.8 nM

B1: Recombinant human CD320 (receptor, UniProt Q9NPF0 36-229, looked up)
chain: SPLSTPTSAQAAGPSSGSCPPTKFQCRTSGLCVPLTWRCDRDLDCSDGSDEEECRIEPCTQKGQCPPPPGLPCPCTGVSDCSGGTDKKLRNCSRLACLAGELRCTLSDDCIPLTWRCDGHPDCPDSSDELGCGTNEILPEGDATTMGPPVTLESVTSLRNATTMGPPVTLESVPSVGNATSSSAGDQSGSPTAY
Kd [4]: 1.86 nM

Second part, the molecule after the results:

Kd [3]: 0.14 nM
Molecule: CCCCCCCCCCCCC/C=C/[C@@H](O)[C@@H](N)CO [sphingosine]

Kd [3]: 0.19 nM
Molecule: Vitamin B12
